The structures appear in SMILES notation. Where a name gives a salt, the structure may show the parent alone.

Series [1] is described as follows: Dog bioavailability study (PK after single oral administration of capsules). Particulars: for Cmax / Exposure AUC / Tmax: listed as HCl•trihydrate. Type of series: in vivo, beagle dogs. Here is the method: The dogs are not fasted before dosing, and have free access to water. Every day of the treatment, a half food ration is provided after the T0 blood sampling, 8 to 17 min before treatment, and the second half ration is given just after dosing or 1 h after treatment for period 2. A 3 days washout period is ensured between treatments.
The capsule composition is described in the table below.
The capsules are administered orally with water (5-10 mL), to provide good oesophageal transit. Each animal is checked at least once daily.
Blood is collected from the jugular vein into lithium heparinised tubes at T0 (before food administration) and then at 1 h, 2 h, 4 h, 6 h, 8 h, 10 h, and 24 h post treatment.
Plasma is then obtained from blood by centrifugation (2500 g for 10 min at 4° C.), and stored at −20° C. until analysis.
After vortex mixing and centrifugation at 4° C., the supernatants are diluted with a 0.5 volume of HPLC grade water in a midi-eppendorf 96-well plate. The plate is sealed and shaken to ensure sample homogeneity prior to analysis.
Pharmacokinetic analysis is performed using WinNonlin™ software version 5.3, using concentrations from individual animals. Non-compartmental analysis is applied to determine the PK parameters (Cmax, Tmax, AUC0-last, t1/2, etc . . . )
Concentrations below the limit of detection are set to zero for descriptive statistics and PK parameter calculations.

Series [2] in a line: Accelerated stability study of Compound 1.HCl.3H2O (FT-IR, DSC, XRPD). The class given is physicochemical. Particulars: 3 months. The text has this:
Samples of [Compound 1. HCl.3H2O] are stored under conditions to evaluate chemical stability and physical stability as described in the table below: [table] Samples are taken at T0, then every month up to 3 months, and analysed by FT-IR, DSC, and XRPD.

Series [3] can be described thus: Salt study: XRPD analysis / hygroscopicity of the hydrochloric acid salt. Type of series: physicochemical. Particulars: salt containing 4-5% water. Here is the method:
(§1) The mixture is cooled to 25° C. at 1° C./min and stirred at 25° C. for 22 h. The solid is isolated by vacuum filtration and dried under suction.

Series [4] can be described thus: Thermodynamic aqueous solubility by HPLC. Particulars: water. The class given is physicochemical. Here is the method: as §1
Setting [5] is: dogs, oral capsules, on average and at the 2 capsule strengths.
Setting [6] is: male beagle dogs, single oral administration, capsules, dose 25 mg/kg.
[7] abbreviates: male beagle dogs, single oral administration, capsules, dose 100 mg/kg.

Take `O=C(Nc1nc2cccc(-c3ccc(CN4CCS(=O)(=O)CC4)cc3)n2n1)C1CC1` [Compound 1, cyclopropanecarboxylic acid {5-[4-(1,1-dioxo-thiomorpholin-4-ylmethyl)-phenyl]-[1,2,4]triazolo[1,5-a]pyridin-2-yl}-amide]: the area under the curve (AUC) in series [1] (male, beagle, dog, plasma, po, 100 mg/kg, male beagle dogs, single oral administration, capsules, dose 100 mg/kg, read-out: Exposure AUC) is 11100 ng·h/mL.
Turning to `O=C(Nc1nc2cccc(-c3ccc(CN4CCS(=O)(=O)CC4)cc3)n2n1)C1CC1` [Compound 1.HCl.3H2O, cyclopropanecarboxylic acid {5-[4-(1,1-dioxo-thiomorpholin-4-ylmethyl)-phenyl]-[1,2,4]triazolo[1,5-a]pyridin-2-yl}-amide], in series [1] (dog, plasma, male beagle dogs, single oral administration, one range printed across both forms and both doses), the half-life lay in the range of 266 to 538 min. For the same compound, in series [1] (setting [5]), the “in vivo exposure compared with Compound 1 (free base)” value was “improved exposure” and the “rate of absorption compared with Compound 1 (free base)” value is given as “more rapidly absorbed”. Besides, in series [1] (setting [6]), the highest concentration (Cmax) turned out to be 3.05 µg/mL, the “Exposure AUC” value was found to be 33.6 µg·h/mL and the Tmax is on record as 2.0 h. In series [1] (setting [7]), the Cmax came out at 2.63 µg/mL, the “Exposure AUC” value was determined as 21.7 µg·h/mL and the Tmax was determined as 2.0 h. Further, the “chemical and physical stability” value in series [2] (25° C./60% RH open, 40° C./75% RH open, 50° C. closed, RT/<5%, 56%, 75% RH open) is “stable under all conditions”. Besides, the change in crystallinity result in series [2] (all storage conditions of Table VI) was “no change in crystallinity”.
As to `O=C(Nc1nc2cccc(-c3ccc(CN4CCS(=O)(=O)CC4)cc3)n2n1)C1CC1` [hydrochloric acid salt of Compound 1, cyclopropanecarboxylic acid {5-[4-(1,1-dioxo-thiomorpholin-4-ylmethyl)-phenyl]-[1,2,4]triazolo[1,5-a]pyridin-2-yl}-amide], in series [3], the “hygroscopicity of the salt” value is “non-hygroscopic”. Besides, in series [4], the solubility was 1900 µg/mL.

The term AUC denotes concentration integrated over time. In general, half-life refers to the time in which the quantity being followed falls by half. Read a high half-life as slow decline. One may read the Cmax as the highest concentration seen after dosing. For orientation: Tmax means the time from dosing to the highest level. Usually solubility stands for the concentration that dissolves in the medium under given conditions.
